{"source": "patent US20170037117A1", "about": "“COMPOSITIONS AND METHODS FOR TREATING METABOLIC DISORDERS” (Salk Institute for Biological Studies, priority 2014, published 2017)", "key": {"[1]": {"tested_on": "G1 Fab binding to human α-CGRP on the chip", "assay": "Epitope mapping of antibody G1 by peptide competition using Biacore", "conditions": "for percentage of binding of G1 Fab to human α-CGRP blocked by competing peptide: 10 uM peptide in 50 nM G1 Fab (2000:1 mol peptide/Fab), FIG. 6", "source_text": "N-biotinylated human α-CGRP was captured on SA sensor chip. […] Y axis represents percentage of binding blocked by the presence of the competing peptide compared with the binding in the absence of the competing peptide.\nHuman α-CGRP was purchased as an N-biotinylated version to enable its high-affinity capture via SA sensor chips. […] All these peptides are amidated at the C-terminus."}, "MIN6 cells": {"tested_on": "MIN6 cells", "assay": "Insulin secretion assay of mouse insulinoma cells (MIN6) upon glucose stimulation", "format": "cell-based", "conditions": "16.8 mM glucose; for effect on glucose-stimulated insulin release: 100 nM to 500 nM peptide, FIGS. 15A-C, 16A", "method": "FIGS. 15A-15C: Insulin secretion assay of mouse insulinoma cells (MIN6) upon 16.8 mM glucose stimulation.\nFIGS. 16A-16C illustrate insulin secretion and inflammation of the TRPV1 mutant mice. FIG. 16A: Insulin secretion assay of mouse insulinoma cells (MIN6) upon 16.8 mM glucose stimulation with 0.1-0.5 μM synthetic human CGRPα. FIG. 16B: Insulin secretion assay (MIN6) upon 16.8 mM glucose and exendin 4 stimulation.\nMIN6 insulinoma cells were obtained at passage 18 from Ulupi Jhala (UCSD, La Jolla, Calif.) and were cultured in DMEM (Life technologies) containing 11 mM glucose, 10% FBS, Glutamax (Invitrogen) and 10 μM β-mercapthoethanol as previously described (Huising et al., Proc. Natl. Acad. Sci. 107:912-917, 2010). Glucose stimulation was performed at low (2.8 mM) and high (16.8 mM). Treatments were diluted in Krebs-Ringer bicarbonate buffer with 2.8 mM glucose.\nTo mimic pancreatic β-cell glucose mediated insulin release, mouse insulinoma MIN6 cells were used (Huising et al., Proc. Natl. Acad. Sci. 107:912-917, 2010)."}, "[2]": {"tested_on": "CRTC1 shuttling in DRG neurons", "assay": "CRTC1 nuclear shuttling in dissociated DRG neuronal cultures (immunostaining)", "format": "cell-based, mouse"}, "[3]": {"assay": "Indirect calorimetry (RER, oxygen consumption) of old wild-type mice treated with CGRP8-37 by osmotic pump", "format": "in vivo, mouse", "conditions": "old (22-23 months) male WT C57BL/6J mice, osmotic pumps, 5.5 mg/mL, after 6 weeks of treatment", "method": "FIGS. 15A-15C: Insulin secretion assay of mouse insulinoma cells (MIN6) upon 16.8 mM glucose stimulation. Cells were incubated with 0.1-0.5 μM synthetic peptides for FIG. 15A: rat CGRPα, FIG. 15B: rat CGRPβ and FIG. 15C: rat Substance P, n=4, means±S.E.M, **p<0.01, *p<0.05, Student's t test. FIG. 15D: Serum levels of CGRP measured by ELISA in blood samples from WT and TRPV1 mutants at 3 and 24 months, n=7, means±S.E.M. a, ns and b, p<0.05. FIG. 15E: Respiratory exchange ratio (RER) analysis and oxygen consumption FIG. 15F: of 23 months old male WT animals treated with CGRP8-37 or vehicle control, n=10, means±S.E.M.,**p<0.01, *p<0.05, Student's t test.\nIndirect calorimetric studies were conducted in a Comprehensive Lab Animal Monitoring System (Columbus Instruments). For GTT and GSIS, glucose (2 g/kg weight) was intraperitoneally administered and blood glucose was measured from tail bleeds at indicated times after injection using a One Touch Ultra glucometer (LifeScan). For the ITT, 5 hour fasted mice were injected with 1 u/kg of human insulin (Humulin; Eli Lily) and glucose was measured as in the GTT. […] Serum insulin was measured using an UltraSensitive Insulin ELISA kit (Crystal Chem). Serum levels of fasted leptin, adiponectin were measured using Quantikine ELISA Kits (R&D systems). […] CGRP was measured using ELISA (EIAab). […]"}}, "note": "“Also recorded” adds a separate entry of the source. Ends that are not written are not given here.", "data": [{"molecule": "K35E (19-37): human α-CGRP mutant fragment, SEQ ID NO: 20, SGGVVKNNFVPTNVGSEAF, C-terminally amidated (SGGVVKNNFVPTNVGSEAF-NH2; listed as Homo sapiens)", "values": [{"measurement": "percentage of binding of G1 Fab to human α-CGRP blocked by competing peptide", "setting": "[1]", "value": 100, "unit": "%"}]}, {"molecule": "substance P (RPKPQQFFGLM-NH2; ends and bridges not checked; UniProt P06767 58-68, looked up) [TRPV1 secreted neuropeptide; synthetic rat peptide]", "values": [{"measurement": "effect on glucose-stimulated insulin release", "setting": "MIN6 cells", "value": "did not alter insulin secretion"}]}, {"molecule": "NC1=N[C@H](O)[C@H]2[C@H]3O[C@]4(O)O[C@@H]([C@@H](O)[C@@]2(N1)[C@@H]4O)[C@]3(O)CO", "note": "[TTX, Tetrodotoxin]", "values": [{"measurement": "distribution of CRTC1", "setting": "[2]", "value": "remained mostly cytoplasmic"}]}, {"molecule": "P29A (19-37): human α-CGRP mutant fragment, SEQ ID NO: 18, SGGVVKNNFVATNVGSKAF, C-terminally amidated (SGGVVKNNFVATNVGSKAF-NH2; listed as Homo sapiens)", "values": [{"measurement": "percentage of binding of G1 Fab to human α-CGRP blocked by competing peptide", "setting": "[1]", "value": 100, "unit": "%"}]}, {"molecule": "CGRP 8-37: positive control compound (vasodilatation antagonist); CGRP receptor antagonist (Tocris Bioscience) (VTHRLAGLLSRSGGVVKNNFVPTNVGSKAF-NH2; UniProt P06881 90-119, looked up, fragment)", "values": [{"measurement": "oxygen consumption", "setting": "[3]; vs controls", "value": "increased"}, {"measurement": "respiratory exchange ratio (RER), metabolic circadian shift from night to day", "setting": "[3]; vs vehicle", "value": "reappearance of a more youthful metabolic circadian shift from night to day"}]}, {"molecule": "K35A (19-37): human α-CGRP mutant fragment, SEQ ID NO: 19, SGGVVKNNFVPTNVGSAAF, C-terminally amidated (SGGVVKNNFVPTNVGSAAF-NH2; listed as Homo sapiens)", "values": [{"measurement": "percentage of binding of G1 Fab to human α-CGRP blocked by competing peptide", "setting": "[1]", "value": 100, "unit": "%"}]}, {"molecule": "26-37: human α-CGRP fragment 26-37, SEQ ID NO: 35, NFVPTNVGSKAF, C-terminally amidated [Clone 26-37]", "values": [{"measurement": "percentage of binding of G1 Fab to human α-CGRP blocked by competing peptide", "setting": "[1]", "value": 100, "unit": "%"}]}, {"molecule": "K35M (19-37): human α-CGRP mutant fragment, SEQ ID NO: 21, SGGVVKNNFVPTNVGSMAF, C-terminally amidated (SGGVVKNNFVPTNVGSMAF-NH2; listed as Homo sapiens)", "values": [{"measurement": "percentage of binding of G1 Fab to human α-CGRP blocked by competing peptide", "setting": "[1]", "value": 100, "unit": "%"}]}, {"molecule": "rat α-CGRP: rat α-CGRP 1-37, SEQ ID NO: 41, SCNTATCVTHRLAGLLSRSGGVVKDNFVPTNVGSEAF", "values": [{"measurement": "reduction of insulin release, % of the maximum insulin response", "setting": "MIN6 cells; 100 nM peptide", "value": 46, "unit": "%"}, {"measurement": "effect on glucose-stimulated insulin release", "setting": "MIN6 cells", "value": "insulin release was greatly blunted"}, {"measurement": "percentage of binding of G1 Fab to human α-CGRP blocked by competing peptide", "setting": "[1]", "value": 100, "unit": "%"}]}, {"molecule": "rat β-CGRP: rat β-CGRP 1-37, SEQ ID NO: 44, SCNTATCVTHRLAGLLSRSGGVVKDNFVPTNVGSKAF", "values": [{"measurement": "effect on glucose-stimulated insulin release", "setting": "MIN6 cells", "value": "insulin release was greatly blunted"}, {"measurement": "reduction of insulin release, % of the maximum insulin response", "setting": "MIN6 cells; 500 nM peptide", "value": 58, "unit": "%"}, {"measurement": "percentage of binding of G1 Fab to human α-CGRP blocked by competing peptide", "setting": "[1]", "value": 100, "unit": "%"}]}, {"molecule": "COc1cccc(NC(=O)/C=C/c2ccc(Cl)cc2)c1", "note": "[SB-366791]", "values": [{"measurement": "CRTC1 nuclear localization after blockade of TRPV1", "setting": "[2]; WT DRG neurons, pretreatment prior to stimulation with FSK and Cap, 10 μM or 2 μM, FIG. 14D", "value": "robust nuclear exclusion of CRTC1"}]}, {"molecule": "1-37 of β-CGRP (WT): human β-CGRP 1-37, SEQ ID NO: 43, ACNTATCVTHRLAGLLSRSGGMVKSNFVPTNVGSKAF, C-terminally amidated", "values": [{"measurement": "percentage of binding of G1 Fab to human α-CGRP blocked by competing peptide", "setting": "[1]", "value": 100, "unit": "%"}]}, {"molecule": "G1: humanized IgG2 monoclonal anti-CGRP antagonist antibody; VH SEQ ID NO: 1, VL SEQ ID NO: 2; ATCC PTA-6867 and PTA-6866 [Clone G1]", "values": [{"measurement": "epitope on human α-CGRP that is recognized by antibody G1", "setting": "[1]; Biacore peptide competition and variant affinities", "value": "targets a C-terminal epitope of CGRP; also recorded: binds to a C-terminal epitope with F37 and G33 being the most important residues; also recorded: on the C-terminal end of human α-CGRP"}]}, {"molecule": "8-37: human α-CGRP fragment 8-37, SEQ ID NO: 16, VTHRLAGLLSRSGGVVKNNFVPTNVGSKAF, C-terminally amidated [Clone 8-37]", "values": [{"measurement": "percentage of binding of G1 Fab to human α-CGRP blocked by competing peptide", "setting": "[1]", "value": 100, "unit": "%"}]}, {"molecule": "COc1cc(CNC(=O)CCCC/C=C/C(C)C)ccc1O", "note": "[Cap, capsaicin]", "values": [{"measurement": "CRTC1 nuclear localization", "setting": "[2]", "value": "accumulation of CRTC1 in the nuclei of TRPV1-positive cells"}, {"measurement": "Cap-induced CRTC1 shuttling", "setting": "[2]; TRPV1 mutant DRG neurons, Cap 1 μM, FIG. 14C", "value": "abolished"}]}]}
